The assay in a line: Anticoagulant activity ex vivo, prothrombin time. The format is in vivo, OFA rats. To be noted: i.v. The procedure:
OFA rats, fasted or otherwise, are anesthetized with pentobarbital (60 mg/kg i.p.). The carotid and the jugular are exposed and catheterized. The catheters are flushed with citrated (1/40) physiological solution. After installation of the catheters, a sample of 1.5 cm^3 of arterial blood is withdrawn into 0.109M citrate (1/9).
30 minutes later, the test product is admini- stered i.v. in a volume of 1 ml.
Arterial blood samples (1.5 ml) are then withdrawn at 1 min 30 sec, 3 min, 5 min, 15 min, 30 min and 60 min.
As each sample is withdrawn, 1.5 ml of citrated physiological solution is reinjected into the animal via the carotid.
The blood tubes are centrifuged for 15 min at 4000 rpm (preparation of plasma).
100 μl of plasma are incubated with 200 μl of neoplastin calcium. The time of onset of the coagulation phenomenon is measured.

The values below come from US5371071A, “Peptide and pseudopeptide compounds which are therapeutically active in the blood coagulation cascade” (Adir et Compagnie, priority 1992, dated 1994).

For hirudin, the “duration of in vivo activity” value is 30 min.
